For test [1], the target named is cdMMP-2 (Homo sapiens, UniProt P08253). Description: MMP microfluorometric profiling assay (fluorogenic Mca-peptide substrate). It counts as biochemical. The note with it: read-out: cdMMP-2 IC50. The procedure:
The tested MMP enzymes were prepared more specifically in the laboratories of the applicants, with the exception of MMP-1. MMP-1 from human rheumatoid synovial fibroblasts was purchased from Calbiochem-Novabiochem Corporation, LaJolla. Preparation of the recombinant catalytic domain of human Gelatinase A (cdMMP-2): The catalytic domain of Pro-Gelatinase A was prepared using an E. coli expression system according to the method described by Kröger et al^[19]. The proenzyme was activated with 0.5 mM APMA at 37°C prior to use in the assay. […] Preparation of PMNL-Gelatinase (MMP-9): Latent PMNL-pro-Gelatinase was prepared from human plasma buffy coat as described by Tschesche et al^[21]. PMNL-pro-Gelatinase was activated prior to use by incubation with Trypsin at 37°C for 10 min. Inactivation of Trypsin was accomplished with TKI. […] The overexpressed protein was isolated as inclusion bodies and the renatured protein was purified by affinity chromatography with a hydroxamate inhibitor coupled column as described^[22]. Preparation of the recombinant catalytic domain of human Collagenase-3 (cdMMP-13): Human pro-cdMMP-13 was prepared using an E. coli expression system according to the method described^[23]. The isolated pro-cdMMP-13 was activated prior to use by incubation with 5 mM HgCl2 for 2 h at 37°C.
(§1) The enzymatic activity was measured using a modified version of a resonance energy transfer fluorogenic assay as described^[26]. Progress curves were monitored by following the increase in fluorescence at 393 nm (λex = 328 nm), induced by the cleavage of the (7-methoxycoumarin-4-yl)acetyl-Pro-Leu-Gly-Leu-(3-[2,4-dinitro-phenyl]-L-2,3-diamino-propionyl)-Ala-Arg-NH2 (Mca-Pro-Leu-Gly-Leu-Dpa-Ala-Arg-NH2) fluorogenic substrate by MMPs. The fluorescent MCA-group is quenched by resonance energy transfer to the 2,4-dinitrophenyl group. Matrix metalloproteinases cleave this substrate at the Gly-Leu bond. Cleavage results in the loss of energy transfer and a large increase in fluorescence of the MCA group. This substrate is commercially available from Bachem, Switzerland.
(§2) Enzyme inhibition assays were carried out in MRB which consisted of 50 mM HEPES/NaOH, pH 7.0, 10 mM CaCl2 and 0,02% (w/v) PEG 8000 at 25°C. MMP microfluorometric profiling assay was done in white U-bottomed 96-well plates (Microfluor 1 White, Dynex, USA) with a final substrate concentration of 6 µM MCA-peptide, approximately 0.3 to 5 nM MMP with variable inhibitor concentrations and 2% DMSO vehicle. From a 1.5 mM stock (100% DMSO) the inhibitors were serially diluted with MRB to 15, 10, 5, 3, 1, 0.6, 0.3, 0.1, 0.05, 0.01 and 0.005 µM final assay concentration. Column 1, rows A through H, contained only DMSO for the "enzyme-only" wells in the assay. After preincubation for 30 min at 25°C the reaction was started by addition of substrate and the plate was read on a SpectraFluor Plus (Tecan, Germany) plate reader with excitation at 330 nm and emission at 405 nm with the gain set to 150. Each measurement was done in triplicate to ensure statistically significant results. The experiment was further controlled for background fluorescence of the substrate, for fluorescence of fully cleaved substrate and for fluorescence quenching or augmentation from solutions containing the test compounds.
Datapoints from eight different MMPs generated on the SpectraFluor Plus were directly visualized on a master Excel spreadsheet. The response of inhibition was determinated for each inhibitor concentration by comparing the amount of hydrolysis (fluorescence units generated over 30 minutes of hydrolysis) of wells containing compound with the "enzyme-only" wells in column 1. With the program GraFit (Erithacus Software Limited) a 4 parameter logistic fit to the dose-response data was used to calculate IC50 values for each compound.

Test [2] concerns the target T1, cdMMP-12 (Homo sapiens, UniProt P39900).
T1 construct: The catalytic domain of MMP-12 was expressed in E. coli; made in house; host or cells: E. coli
The description is as above. It counts as biochemical. The procedure:
(§3) The tested MMP enzymes were prepared more specifically in the laboratories of the applicants, with the exception of MMP-1. MMP-1 from human rheumatoid synovial fibroblasts was purchased from Calbiochem-Novabiochem Corporation, LaJolla. Preparation of the recombinant catalytic domain of human Gelatinase A (cdMMP-2): The catalytic domain of Pro-Gelatinase A was prepared using an E. coli expression system according to the method described by Kröger et al^[19]. The proenzyme was activated with 0.5 mM APMA at 37°C prior to use in the assay. Preparation of the recombinant catalytic domain of human neutrophile Collagenase (cdMMP-8^Met80): The enzyme was expressed in E. coli as an active variant by the method of Kleine et al^[20]. Preparation of PMNL-Gelatinase (MMP-9): Latent PMNL-pro-Gelatinase was prepared from human plasma buffy coat as described by Tschesche et al^[21]. PMNL-pro-Gelatinase was activated prior to use by incubation with Trypsin at 37°C for 10 min. Inactivation of Trypsin was accomplished with TKI. Preparation of the recombinant catalytic domain of human Macrophage Elastase (cdMMP-12): The catalytic domain of MMP-12 was expressed in E. coli. The overexpressed protein was isolated as inclusion bodies and the renatured protein was purified by affinity chromatography with a hydroxamate inhibitor coupled column as described^[22]. Preparation of the recombinant catalytic domain of human Collagenase-3 (cdMMP-13): Human pro-cdMMP-13 was prepared using an E. coli expression system according to the method described^[23]. The isolated pro-cdMMP-13 was activated prior to use by incubation with 5 mM HgCl2 for 2 h at 37°C. Preparation of the recombinant catalytic domain of Membrane-Type-1 MMP (cdMMP-14): The catalytic domain of MMP-14 was expressed in E. coli and was activated by autocatalysis^[24]. Preparation of the recombinant human ectodomain of Membrane-Type-1 MMP (ΔTM-MMP-14): The ectodomain of MMP-14 was expressed in Pichia Pastoris by the method of Roderfeld et al. and activated by yeast proteases (Furin-like-proteases) during maturation^[25].
as §1
as §2, with “The experiment was further controlled for background fluorescence of the substrate, for fluorescence of fully cleaved substrate and for fluorescence quenching or augmentation from solutions containing the test compounds.” left out

The target in test [3] is T2, MMP-1 (Homo sapiens, UniProt P03956).
T2 construct: MMP-1 from human rheumatoid synovial fibroblasts was purchased; purchased Calbiochem-Novabiochem Corporation, LaJolla; host or cells: human rheumatoid synovial fibroblasts
T2 sequence (P03956 100-469): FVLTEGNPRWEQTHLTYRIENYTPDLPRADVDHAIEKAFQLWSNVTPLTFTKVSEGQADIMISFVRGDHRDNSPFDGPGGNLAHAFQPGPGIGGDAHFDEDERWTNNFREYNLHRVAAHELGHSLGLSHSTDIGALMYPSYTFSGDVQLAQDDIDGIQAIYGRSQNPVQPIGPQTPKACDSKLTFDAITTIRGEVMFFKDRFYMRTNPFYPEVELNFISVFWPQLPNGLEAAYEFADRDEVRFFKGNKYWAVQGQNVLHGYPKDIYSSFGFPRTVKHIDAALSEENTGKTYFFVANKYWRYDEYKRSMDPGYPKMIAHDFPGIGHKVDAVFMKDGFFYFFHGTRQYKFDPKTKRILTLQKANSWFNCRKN
The test is described as above. It counts as biochemical. The procedure: as §3, §1
as §2, with “The experiment was further controlled for background fluorescence of the substrate, for fluorescence of fully cleaved substrate and for fluorescence quenching or augmentation from solutions containing the test compounds.” left out

The target in test [4] is T3, MMP-9 (Homo sapiens, UniProt P14780).
T3 construct: from tissue; host or cells: human plasma buffy coat (PMNL)
T3 sequence (P14780 107-707 limits assumed): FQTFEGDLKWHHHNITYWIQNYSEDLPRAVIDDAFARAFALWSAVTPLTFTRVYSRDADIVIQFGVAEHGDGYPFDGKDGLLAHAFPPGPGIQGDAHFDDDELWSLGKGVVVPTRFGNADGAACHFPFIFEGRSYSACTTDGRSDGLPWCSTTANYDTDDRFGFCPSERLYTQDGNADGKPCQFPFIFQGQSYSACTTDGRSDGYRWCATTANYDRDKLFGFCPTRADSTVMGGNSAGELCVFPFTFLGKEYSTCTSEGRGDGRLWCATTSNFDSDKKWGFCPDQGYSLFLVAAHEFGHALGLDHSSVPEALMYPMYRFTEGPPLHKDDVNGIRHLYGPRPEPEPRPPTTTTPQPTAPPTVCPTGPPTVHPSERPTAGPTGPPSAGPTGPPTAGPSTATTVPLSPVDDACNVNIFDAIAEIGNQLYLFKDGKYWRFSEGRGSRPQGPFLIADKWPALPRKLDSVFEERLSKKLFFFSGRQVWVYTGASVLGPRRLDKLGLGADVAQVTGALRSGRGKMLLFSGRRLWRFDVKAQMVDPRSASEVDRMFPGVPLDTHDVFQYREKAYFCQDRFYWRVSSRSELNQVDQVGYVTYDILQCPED
The description is as above. The format is biochemical. The procedure: as §3, §1
as §2, with “The experiment was further controlled for background fluorescence of the substrate, for fluorescence of fully cleaved substrate and for fluorescence quenching or augmentation from solutions containing the test compounds.” left out

The target in test [5] is T4, cdMMP-14 (Homo sapiens, UniProt P50281).
T4 construct: made in house; host or cells: E. coli
The test is described as above. The format is biochemical. The procedure:
as §3, §1
as §2, with “The experiment was further controlled for background fluorescence of the substrate, for fluorescence of fully cleaved substrate and for fluorescence quenching or augmentation from solutions containing the test compounds.” left out

In test [6] the target is cdMMP-13 (Homo sapiens, UniProt P45452). The test is described as above. It counts as biochemical. The note with it: read-out: cdMMP-13 IC50. The method, then: as §3, §1
as §2, with “The experiment was further controlled for background fluorescence of the substrate, for fluorescence of fully cleaved substrate and for fluorescence quenching or augmentation from solutions containing the test compounds.” left out

In test [7] the target is MMPs. Description: Ki determination in microfluorometric assay (Cheng-Prusoff, enzyme not specified). The following applies: enzyme not given. It counts as biochemical, human. The method, then:
as §1
Enzyme inhibition assays were carried out in MRB which consisted of 50 mM HEPES/NaOH, pH 7.0, 10 mM CaCl2 and 0,02% (w/v) PEG 8000 at 25°C. […] After preincubation for 30 min at 25°C the reaction was started by addition of substrate and the plate was read on a SpectraFluor Plus (Tecan, Germany) plate reader with excitation at 330 nm and emission at 405 nm with the gain set to 150. […] The experiment was further controlled for background fluorescence of the substrate, for fluorescence of fully cleaved substrate and for fluorescence quenching or augmentation from solutions containing the test compounds. […]

The structures appear in SMILES notation.

The source of these data is EP1191024A1, “Thiadiazines and their use as inhibitors of metalloproteinases” (Tschesche, Harald, priority 2000, dated 2002).

T1 sequence (P39900 106-263 limits assumed): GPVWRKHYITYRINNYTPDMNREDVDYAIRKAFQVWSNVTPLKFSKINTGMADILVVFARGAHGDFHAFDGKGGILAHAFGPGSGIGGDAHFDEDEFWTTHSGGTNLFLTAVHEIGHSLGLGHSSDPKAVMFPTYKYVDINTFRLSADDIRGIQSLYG
Sequence of cdMMP-2 (P08253 110-446): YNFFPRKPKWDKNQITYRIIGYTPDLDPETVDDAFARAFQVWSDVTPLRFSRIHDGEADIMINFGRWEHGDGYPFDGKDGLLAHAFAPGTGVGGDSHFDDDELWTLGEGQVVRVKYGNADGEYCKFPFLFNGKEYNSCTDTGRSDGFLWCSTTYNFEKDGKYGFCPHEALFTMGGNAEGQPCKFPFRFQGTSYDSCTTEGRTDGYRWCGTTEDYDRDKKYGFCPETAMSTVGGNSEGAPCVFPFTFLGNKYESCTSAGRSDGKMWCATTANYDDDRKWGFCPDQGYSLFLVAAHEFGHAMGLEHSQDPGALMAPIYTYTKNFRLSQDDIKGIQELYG

By IC50 is commonly meant the point on the concentration scale where inhibition reaches its midpoint. With `C[C@H](NS(=O)(=O)c1ccccc1)C(=O)NC1=NN=C(c2ccc(F)cc2)CS1` [Example 13, (2S)-N-[5-(4-Fluorophenyl)-6H-1,3,4-thiadiazin-2-yl]-2-[(phenylsulfonyl)amino]-propanamide], the concentration for half-maximal inhibition (IC50) came out at 743 nM in test [1]; 338 nM in test [2]; 500 nM in test [3]; 684 nM in test [4]; 839 nM in test [5]; 1170 nM in test [6].

The Ki is a measure of affinity in units of concentration, obtained from inhibition or displacement. Higher therefore signals a looser hold on the target. In test [7], `CC(C)(NS(=O)(=O)c1ccccc1)C(=O)NC1=NN=C(c2ccc(Cl)cc2)CS1` [Example 20, N-[5-(4-Chlorophenyl)-6H-1,3,4-thiadiazin-2-yl]-2-methyl-2-[(phenylsulfonyl)-amino]propanamide] displayed a Ki of roughly 100 nM.
